Consider 14 compounds from ChEMBL document CHEMBL1149377, “8-(1-Naphthalen-2-yl-vinyl)-6,7,10-trioxaspiro (4.5) decane, a new 1,2,4-trioxane effective against rodent and simian malaria” (2006).

Assay [1] concerns Plasmodium yoelii. The experiment in a line: Antimalarial activity in Plasmodium yoelii MDR infected Swiss mice (Mus musculus) at 96 mg/kg Intramuscular dose. It is filed as functional. The settings on record: im.
Assay [2] concerns Plasmodium yoelii. The experiment in a line: Antimalarial activity against Plasmodium yoelii in Swiss mice (Mus musculus) model at 96 mg/kg peroral dose. It is filed as functional. Conditions: route oral.
For assay [3], the system named is Plasmodium yoelii. The experiment in a line: Antimalarial activity against Plasmodium yoelii infected Swiss mice (Mus musculus) at 48 mg/kg peroral dose. Format: functional. The settings on record: route oral.
Assay [4] deals with Plasmodium yoelii. The experiment in a line: Antimalarial activity against Plasmodium yoelii infected Swiss mice (Mus musculus) at 48 mg/kg Intramuscular dose. It is filed as functional. Conditions: im.
Assay [5] concerns Plasmodium yoelii. The experiment in a line: Antimalarial activity against Plasmodium yoelii infected Swiss mice (Mus musculus) at 24 mg/kg intramuscular dose. Format: functional. Conditions: im.
The subject of the next assay is Plasmodium cynomolgi. The experiment in a line: Elimination of parasitaemia in Plasmodium cynomolgi infected Rhesus monkeys (Macaca mulatta) at 20 mg/kg intramuscular or 40 mg/kg peroral dose. Format: functional, organism-based.
The subject of assay [6] is Plasmodium yoelii. The experiment in a line: Antimalarial activity against Plasmodium yoelii infected Swiss mice (Mus musculus) at 192 mg/kg peroral dose. Format: functional. Conditions: route oral.
Assay [7] deals with Plasmodium yoelii. The experiment in a line: Antimalarial activity against Plasmodium yoelii infected Swiss mice (Mus musculus) at 72 mg/kg Intramuscular dose. It is filed as functional. The settings on record: im.

For orientation: inhibition in vivo means the relative decrease from the control value, in per cent.

Consider `C=C(c1ccc(F)cc1)C1COC2(CCCCC2)OO1` (configuration not stated), for which the inhibition in vivo at 96 mg/kg in the assay with Plasmodium yoelii [1] came to 89%; with Plasmodium yoelii [2], 14%.

In turn, `CCN(CC)CCCC(C)Nc1ccnc2cc(Cl)ccc12` (configuration not stated) [CHLOROQUINE] yielded an inhibition in vivo at 48 mg/kg with Plasmodium yoelii [3] of 100%. In the assay on Plasmodium yoelii [2], this compound had an inhibition in vivo at 96 mg/kg of 100%.

In the case of `C=C(c1cccc2ccccc12)C1COC2(CCCCC2)OO1` (configuration not stated), the inhibition in vivo at 96 mg/kg with Plasmodium yoelii [1] stood at 87%; in the assay with Plasmodium yoelii [2], 83%.

Regarding `C=C(c1ccc2ccc3ccccc3c2c1)C1COC2(CCCCC2)OO1` (configuration not stated), the values for the inhibition in vivo at 96 mg/kg in the assay with Plasmodium yoelii [1] and in the assay on Plasmodium yoelii [2] were 13% and 99%, respectively.

For the compound `C=C(c1ccc2ccc3ccccc3c2c1)C1COC2(CCCC2)OO1` (configuration not stated), the inhibition in vivo at 96 mg/kg in the assay with Plasmodium yoelii [1] was 99%; in the assay with Plasmodium yoelii [2], 64%.

As for `C=C(c1ccc2c(c1)Cc1ccccc1-2)C1COC2(CCCCC2)OO1` (configuration not stated), the inhibition in vivo at 96 mg/kg in the assay on Plasmodium yoelii [1] was found to be 83%; with Plasmodium yoelii [2], 100%.

Take `C=C(c1ccc2c(ccc3ccccc32)c1)C1COC2(CCCC2)OO1` (configuration not stated): the inhibition in vivo at 96 mg/kg in the assay on Plasmodium yoelii [1] and in the assay with Plasmodium yoelii [2] was 100% each time.

In turn, `C=C(c1ccc2ccccc2c1)C1COC2(CCCCC2)OO1` (configuration not stated) showed an inhibition in vivo at 96 mg/kg with Plasmodium yoelii [1] of 97%. The inhibition in vivo at 48 mg/kg in the assay on Plasmodium yoelii [4] is 60%.

As to `C[C@@H]1CC[C@H]2[C@@H](C)C(=O)O[C@@H]3O[C@@]4(C)CC[C@@H]1[C@]32OO4` [ARTEMISININ], in the assay on Plasmodium yoelii [5], the inhibition in vivo at 24 mg/kg is 100%. In the assay on Plasmodium yoelii [4], this compound returned an inhibition in vivo at 48 mg/kg of 100%.

Consider `C=C(c1ccc2ccccc2c1)C1COC2(CCCC2)OO1` (configuration not stated), for which the inhibition in vivo at 96 mg/kg is 100% with Plasmodium yoelii [1] and 90% in the assay with Plasmodium yoelii [2]. For the same compound, the clearance in the assay on Plasmodium cynomolgi is 100%. For the same compound, at 48 mg/kg the inhibition in vivo in the assay on Plasmodium yoelii [4] was 97%. Moreover, the inhibition in vivo at 192 mg/kg in the assay on Plasmodium yoelii [6] turned out to be 100%. Moreover, in the assay with Plasmodium yoelii [7], 72 mg/kg produced 96% inhibition in vivo.

For the compound `C=C(c1ccccc1)C1COC2(CCCC2)OO1` (configuration not stated), the inhibition in vivo at 96 mg/kg came to 100% in the assay with Plasmodium yoelii [1] and 15% in the assay on Plasmodium yoelii [2].

As for `C=C(c1ccc2c(c1)Cc1ccccc1-2)C1COC2(CCCC2)OO1` (configuration not stated), the inhibition in vivo at 96 mg/kg in the assay with Plasmodium yoelii [1] and in the assay with Plasmodium yoelii [2] was 100% each time.

Take `C=C(c1cccc2ccccc12)C1COC2(CCCC2)OO1` (configuration not stated): the results for the inhibition in vivo at 96 mg/kg in the assay on Plasmodium yoelii [1] and in the assay with Plasmodium yoelii [2] were 91% and 78%, respectively.

In the case of `C=C(c1ccc2c(ccc3ccccc32)c1)C1COC2(CCCCC2)OO1` (configuration not stated), the inhibition in vivo at 96 mg/kg in the assay with Plasmodium yoelii [1] worked out at 81%; with Plasmodium yoelii [2], 100%.
